Columns and labels:
Assay type in all cases: in vivo, male Wistar rats
PCNA = assay: Western blot of PCNA in livers of DEN-induced HCC rats; conditions: liver, versus HCC; P<0.01 (FIG. 6)
Description: (§1) In this study, 4 weeks old male Wistar rats were used. The rats were randomly divided into two groups; Control group (n=8) which received 1× PBS via intraperitoneal (i.p.) injection; Experimental group which were injected with DEN at 50 mg/kg b. wt. (Sigma Aldrich, USA) dissolved in PBS once a week for 16 weeks via i.p. This HCC induction protocol was modified from the protocol described by (DePeralta et al., 2016; Schiffer et al., 2005).
(§2) All drugs were orally administered with intragastric (gavage) tube. Doses and route of administration followed what was been previously reported in the literature.
For the HCC+sorafenib group, sorafenib (Carbosynth Limited) was administered at a dose of 10 mg/kg b.wt. […]
Liver tissue samples (10 mg) were homogenized in cold RIPA buffer (Sigma Aldrich, USA) 2 μl of protease inhibitor and of phosphatases inhibitor were added to the homogenizing buffer (Sigma Aldrich, USA). Protein concentration of each liver sample was determined using the Bradford method (Bio-Rad, Hercules, Calif.) with the Promega GloMax Discover. […] Variations of gel percentages were used according to the size of protein to be determined. […] Protein bands were then detected using a chemiluminescence solution known as WesternSure PREMIUM, the signal was detected and visualized using the Bio-Rad ChemiDoc XRS+ System. The intensity of the band was measured using the ImageJ software. […]

DEN-induced HCC [1] = assay: Macroscopic appearance of liver and number of lesions/nodules in DEN-induced HCC rats
Description: as §1, §2
(§3) For the HCC+sorafenib group, sorafenib (Carbosynth Limited) was administered at a dose of 10 mg/kg b.wt. […] A 0.3% solution of DMSO was used to dissolve the sorafenib. […] At the end of the experimental period and after a 24-hour post last drug administration, animals were euthanized using Diethyl ether and sacrificed and dissected under controlled conditions. Blood and liver tissue samples were collected and stored either at room temperature in buffered formalin for histological analysis or at −80 C in PBS for biochemical and immunoblotting analyses.

reticulin network = assay: Reticulin staining of liver sections in DEN-induced HCC rats; conditions: in comparison to HCC groups (FIG. 5)
Description: as §1, §2, §3

DEN-induced HCC [2] = assay: Liver enzymes (ALT, AST) in serum of DEN-induced HCC rats, colorimetric assay
Description: as §1, §2, §3

DEN-induced HCC [3] = assay: Histopathological evaluation of liver (H&E) in DEN-induced HCC rats; conditions: HCC groups (FIG. 10)
Description: as §1, §2, §3

[4] = system: intrinsic apoptotic pathway; assay: Western blot of intrinsic apoptotic pathway proteins (Bax, Bcl-2, PARP, pro-caspase-3, pro-caspase-9) in livers of DEN-induced HCC rats
Description: as §1, §2, §3
Liver tissue samples (10 mg) were homogenized in cold RIPA buffer (Sigma Aldrich, USA) 2 μl of protease inhibitor and of phosphatases inhibitor were added to the homogenizing buffer (Sigma Aldrich, USA). Protein concentration of each liver sample was determined using the Bradford method (Bio-Rad, Hercules, Calif.) with the Promega GloMax Discover. In order to blot the proteins into the gel, 2-mercaptoethanol, […], was added to the cell lysate produced from the homogenization of liver tissues. The mixture of the lysate and loading dye was then loaded into the SDS-PAGE gel. Variations of gel percentages were used according to the size of protein to be determined. Following the separation of the protein content of each sample on the SDS-PAGE gel, proteins were transferred onto a PVDF membrane and blocked in 5% BSA in TBST or a 5% (w/v) non-fat milk at room temperature for one hour. After the blocking stage, the membranes were incubated with primary anti-body overnight at 4° C. In this study, the primary antibodies selected here were anti-Proliferating Cell Nuclear Antigen (PCNA), anti-caspase-3 (Cell Signaling Technology Inc.), anti-caspase-9 (Nous Biologicals), anti-PolyADP-ribose Polymerase (PARP), anti-Bcl-2, anti-Bax (Santa Cruz). Following the overnight incubation with primary antibodies, the membranes were extensively washed with TBST and re-probed with secondary antibodies including anti-rabbit IgG (Cell Signaling Technology, Inc, MA, USA) and anti-mouse IgG, and conjugated horseradish peroxidase for 1 hour at room temperature. Protein bands were then detected using a chemiluminescence solution known as WesternSure PREMIUM, the signal was detected and visualized using the Bio-Rad ChemiDoc XRS+ System. The intensity of the band was measured using the ImageJ software. The internal control used was total protein which was stained using the SYPRO Ruby protein gel stain following the protocol instructed by the manufacturer (Thermo Fisher Scientific).
Housekeeping proteins are used as the controls for every western blot analysis. Because of their stable expression in tissues, they are great indicators to validate the integrity of the protein samples loaded into the SDS-PAGE gel, therefore accurately reflecting the amount of proteins in the samples. Current research has investigated the ability of these housekeeping proteins to remain stable under different experimental conditions. […] Therefore, an alternative approach was used to resolve this issue. Total protein was utilized as the loading control; this protocol measures the whole protein content of a sample rather than relying on one protein.

[5] = liver, compared to the HCC group alone, P<0.01 (FIG. 8)
[6] = liver, compared to the HCC group, P<0.05 (FIG. 9)

CC(/C=C/C=C(\C)C(=O)O[C@@H]1O[C@H](CO[C@@H]2O[C@H](CO)[C@@H](O)[C@H](O)[C@H]2O)[C@@H](O)[C@H](O)[C@H]1O)=C\C=C\C=C(C)\C=C\C=C(/C)C(=O)O[C@@H]1O[C@H](CO[C@@H]2O[C@H](CO)[C@@H](O)[C@H](O)[C@H]2O)[C@@H](O)[C@H](O)[C@H]1O [crocin, Crocetin di-gentiobiose ester]
expression of PCNA (PCNA): significantly lowered the expression of PCNA | number of liver lesions (DEN-induced HCC [1]; in comparison to the HCC animals (FIG. 4)): reduced the number of lesions | number of liver lesions (DEN-induced HCC [1]; in comparison to the livers of sorafenib alone (HCC+SB) (FIG. 4)): significantly lower numbers of lesions | reticulin network / fiber breakage (reticulin network): recovered the damage done by the DEN-induction of cancer | levels of ALT and AST in the blood (DEN-induced HCC [2]; in comparison to DEN-induced HCC rats (FIG. 11)): great impact on lowering the levels of both ALT and AST | level of ALT in serum (DEN-induced HCC [2]; in comparison to the HCC group, crocin 200 mg/kg b.wt., sorafenib 10 mg/kg b.wt., oral gavage 5 times a week, week 17 to 19, P<0.01): decrease in the level of ALT | level of ALT in serum (DEN-induced HCC [2]; in comparison to the sorafenib alone group (HCC+sorafenib), P<0.05): significantly decreased levels of ALT | architecture of the liver (H&E histology) (DEN-induced HCC [3]): restored to a great degree the normal architecture of the liver | expression of PARP ([4]; liver, compared to the HCC group alone, P<0.001 (FIG. 8)): decreased | expression of pro-caspase-3 [4, 5]: decreased | expression of pro-caspase-9 [4, 5]: decreased | expression of anti-apoptotic protein Bcl-2 [4, 6]: significantly (P<0.05) decreased | expression of pro-apoptotic protein Bax [4, 6]: increasing the expression | activation of the intrinsic apoptotic pathway ([4]; western blot analysis (FIGS. 7, 8, 9)): triggered the activation of the intrinsic apoptotic pathway
